Source: patent US20230014181A1, “CULTURE SYSTEM AND METHODS FOR IMPROVED MODELING OF NEUROLOGICAL CONDITIONS” (Genentech, Inc., priority 2021, published 2023)
Structures can show the parent of a compound that is named as a salt. Where two headings read alike, the source gives them in different places.

Tested on: human iPSC neurons, astrocytes and microglia treated with 5 μM sAβ42s
Assay: Focused small molecule screen, triple culture (neuron, astrocyte, microglia), rescue from sAβ42s toxicity
Format: cell-based
Details: for percent rescue from sAβ42s toxicity at 0.78 µM / percent rescue from sAβ42s toxicity at 3.13 µM / percent rescue from sAβ42s toxicity at 12.5 µM / percent rescue from sAβ42s toxicity at 50 µM: Homo sapiens, iPSC; for percent rescue from sAβ42s toxicity at 0.78 µM: 0.78 μM compound
Description: FIGS. 11A-11D show synapse % rescue versus MAP2% rescue (FIGS. 11A-11B) and beta III tubulin % rescue versus MAP2% rescue (FIGS. 11C-11D), in neurons and astrocytes (FIGS. 11A and 11C) or neurons, astrocytes, and microglia (FIGS. 11B and 11D) treated with 5 μM sAβ42s and small molecules from a focused screen of known neuroprotective agents at multiple concentrations (50 μM, 25 μM, 12.5 μM and 6.25 μM (double culture), 50 μM, 12.5 μM, 3.1 μM and 0.78 μM (triple culture). Small molecules that prevented toxicity in dendrites (MAP2), synapses (Synapsin 1/2), cell count (CUX2), or axons ([…]) at or above 30% were considered hits (red dotted line).
Frozen cells were thawed and immediately seeded at a density of 8,000 cells/well of a 384-well plate onto 8-week old neuron-astrocyte co-culture in Microglia media (BrainPhys™ neuronal media (Stem Cell Technologies) supplemented with 1× B27 with vitamin A, 1×N2 Plus Media Supplement (R&D Systems), 20 ng/mL BDNF, 20 ng/mL GDNF, 1 mM creatine, 200 nM L-ascorbic acid, 1 μg/mL mouse laminin, 0.5 mM GlutaMAX™ (Thermofisher), 0.5× penicillin-streptomycin, 1× normocin, 5 ng/mL TGF-β, 100 ng/mL human IL-34, 1.5 μg/mL cholesterol, 1 ng/mL gondoic acid, 100 ng/mL oleic acid, 460 μM thioglycerol, 1× insulin-transferrin-selenium, 25 ng/mL rhM-CSF, 5.4 μg/mL human insulin solution).
In double (neuron, astrocyte) and triple (neuron, astrocyte, microglia) cultures, each small molecule listed in Table 1 was tested in the AD model paradigm at up to four concentrations. Molecules that characterized ≥30% rescue in any of the four measurements of dendrites area (MAP2), synapses count (synapsin 1/2), or cell count (CUX2), or axon area (Beta III Tubulin; “BT3”)) were classified as hits (FIGS. 11A-11D, Table 2, and Table 3).

[1] = 3.13 μM compound, read-out: % B3T rescue
[2] = 3.13 μM compound, read-out: % MAP2 rescue
[3] = 3.13 μM compound, read-out: % Synapse rescue
[4] = 12.50 μM compound, read-out: % B3T rescue
[5] = 12.50 μM compound, read-out: % MAP2 rescue
[6] = 12.50 μM compound, read-out: % Synapse rescue
[7] = 50.00 μM compound, read-out: % B3T rescue
[8] = 50.00 μM compound, read-out: % MAP2 rescue
[9] = 50.00 μM compound, read-out: % Synapse rescue

For `Cc1cc(C(=O)CN2CCCC2)c(C)n1-c1ccc(F)cc1` [IU1], the “% B3T rescue” value (12.50 μM compound) was 41%, the “% MAP2 rescue” value (12.50 μM compound) was 32% and the “% Synapse rescue” value (12.50 μM compound) was 23%.

Work on `COc1cc([C@@H]2c3cc4c(cc3[C@@H](O[C@@H]3O[C@@H]5CO[C@@H](c6cccs6)O[C@H]5[C@H](O)[C@H]3O)[C@H]3COC(=O)[C@H]23)OCO4)cc(OC)c1O` [Teniposide] yielded a percent rescue from sAβ42s toxicity at 0.78 µM (read-out: % B3T rescue) of 35%, a percent rescue from sAβ42s toxicity at 0.78 µM (read-out: % MAP2 rescue) of -7% and a percent rescue from sAβ42s toxicity at 0.78 µM (read-out: % Synapse rescue) of 1%. The percent rescue from sAβ42s toxicity at 3.13 µM [1] was 42%, the percent rescue from sAβ42s toxicity at 3.13 µM [2] was -10% and the percent rescue from sAβ42s toxicity at 3.13 µM [3] was 5%. It also gave a percent rescue from sAβ42s toxicity at 12.5 µM [4] of 50%, a percent rescue from sAβ42s toxicity at 12.5 µM [5] of -17% and a percent rescue from sAβ42s toxicity at 12.5 µM [6] of 3%. The percent rescue from sAβ42s toxicity at 50 µM [7] was 52%, the percent rescue from sAβ42s toxicity at 50 µM [8] was -19% and the percent rescue from sAβ42s toxicity at 50 µM [9] was 3%.

In the case of `OC(CNc1ccccc1)Cn1c2ccc(Br)cc2c2cc(Br)ccc21` (stereo not drawn) [P7C3], the “% B3T rescue” value (3.13 μM compound) is reported as 30%, the “% MAP2 rescue” value (3.13 μM compound) is reported as 2% and the “% Synapse rescue” value (3.13 μM compound) is reported as 3%. The “% B3T rescue” value (50.00 μM compound) was 43%, the “% MAP2 rescue” value (50.00 μM compound) was −8% and the “% Synapse rescue” value (50.00 μM compound) was 2%.

`C=CC[C@@H]1/C=C(\C)C[C@H](C)C[C@H](OC)[C@H]2O[C@@](O)(C(=O)C(=O)N3CCCC[C@H]3C(=O)O[C@H](/C(C)=C/[C@@H]3CC[C@@H](O)[C@H](OC)C3)[C@H](C)[C@@H](O)CC1=O)[C@H](C)C[C@@H]2OC` [FK 506] gave a percent rescue from sAβ42s toxicity at 12.5 µM [4] of 52%, a percent rescue from sAβ42s toxicity at 12.5 µM [5] of 34% and a percent rescue from sAβ42s toxicity at 12.5 µM [6] of 34%.

For `O=C1Nc2ccccc2/C1=C1/Nc2ccccc2/C1=N\O` [Indinibin-3′-monoxime], the “% B3T rescue” value (3.13 μM compound) was 31%, the “% MAP2 rescue” value (3.13 μM compound) was 6% and the “% Synapse rescue” value (3.13 μM compound) was 9%. For the same compound, the “% B3T rescue” value (12.50 μM compound) was 74%, the “% MAP2 rescue” value (12.50 μM compound) was 37% and the “% Synapse rescue” value (12.50 μM compound) was 44%. The “% B3T rescue” value (50.00 μM compound) was 49%, the “% MAP2 rescue” value (50.00 μM compound) was 23% and the “% Synapse rescue” value (50.00 μM compound) was 34%.

For `Oc1cc(O)c2c(c1)O[C@H](c1ccc(O)c(O)c1)[C@H](O)C2` [Epicatechin], the percent rescue from sAβ42s toxicity at 50 µM [7] was 30%, the percent rescue from sAβ42s toxicity at 50 µM [8] was 28% and the percent rescue from sAβ42s toxicity at 50 µM [9] was 20%.

Compound `Cc1c[nH]c(-c2cnc(NCCNc3ccc(C#N)cn3)nc2-c2ccc(Cl)cc2Cl)n1` [CHIR 99021 trihydrochloride] has a percent rescue from sAβ42s toxicity at 50 µM [7] of 66%, a percent rescue from sAβ42s toxicity at 50 µM [8] of 58% and a percent rescue from sAβ42s toxicity at 50 µM [9] of 46%.

In the case of `Cn1cnc2c(NCc3ccccc3)nc(NCCO)nc21` [Olomoucine], the percent rescue from sAβ42s toxicity at 50 µM [7] is reported as 69%, the percent rescue from sAβ42s toxicity at 50 µM [8] is reported as -8% and the percent rescue from sAβ42s toxicity at 50 µM [9] is reported as -15%.

With `Cn1cc(C2=C(c3ccc(Cl)cc3Cl)C(=O)NC2=O)c2ccccc21` [SB216763] the “% B3T rescue” value (50.00 μM compound) was 46%, the “% MAP2 rescue” value (50.00 μM compound) was −24% and the “% Synapse rescue” value (50.00 μM compound) was −15%.

With `COc1ccc(S(=O)(=O)NCCCC(=O)Nc2ccc(Sc3ccc(N)cc3)cc2)cc1` [BI-6C9] the “% B3T rescue” value (50.00 μM compound) was 65%, the “% MAP2 rescue” value (50.00 μM compound) was 58% and the “% Synapse rescue” value (50.00 μM compound) was 55%.

`Oc1ccc(C=Cc2cc(O)cc(O)c2)cc1` [Resveratrol] showed a percent rescue from sAβ42s toxicity at 0.78 µM (read-out: % B3T rescue) of 27%, a percent rescue from sAβ42s toxicity at 0.78 µM (read-out: % MAP2 rescue) of 33% and a percent rescue from sAβ42s toxicity at 0.78 µM (read-out: % Synapse rescue) of 24%. For the same compound, the percent rescue from sAβ42s toxicity at 3.13 µM [1] was 30%, the percent rescue from sAβ42s toxicity at 3.13 µM [2] was 33% and the percent rescue from sAβ42s toxicity at 3.13 µM [3] was 27%. It also gave a percent rescue from sAβ42s toxicity at 12.5 µM [4] of 54%, a percent rescue from sAβ42s toxicity at 12.5 µM [5] of 57% and a percent rescue from sAβ42s toxicity at 12.5 µM [6] of 49%. It also gave a percent rescue from sAβ42s toxicity at 50 µM [7] of 78%, a percent rescue from sAβ42s toxicity at 50 µM [8] of 84% and a percent rescue from sAβ42s toxicity at 50 µM [9] of 78%.

`Cc1c(C)c(NCC(=O)N(C)C2CCN(Cc3ccc(C(N)=O)cc3)CC2)c(C)c(C)c1N` [sun11602] was tested, and the “% B3T rescue” value (3.13 μM compound) was 33%, the “% MAP2 rescue” value (3.13 μM compound) was 10% and the “% Synapse rescue” value (3.13 μM compound) was 11%. For the same compound, the “% B3T rescue” value (12.50 μM compound) was 43%, the “% MAP2 rescue” value (12.50 μM compound) was 19% and the “% Synapse rescue” value (12.50 μM compound) was 15%. The “% B3T rescue” value (50.00 μM compound) was 47%, the “% MAP2 rescue” value (50.00 μM compound) was 14% and the “% Synapse rescue” value (50.00 μM compound) was 11%.

For `O=C(COc1ccc(Cl)cc1)NC1CCC(NC(=O)COc2ccc(Cl)cc2)CC1` (stereo not drawn) [ISR Inhibitor, ISRIB], the “% B3T rescue” value (50.00 μM compound) was 22%, the “% MAP2 rescue” value (50.00 μM compound) was 31% and the “% Synapse rescue” value (50.00 μM compound) was 21%.
